In the NIST ThermoML archive (doi:10.1016/j.jct.2014.02.021):
Values joined by “and” are separate entries in the source; they are usually repeats but may differ in a detail not shown here. Equal entries are not always repeated.

What was measured:
[1] = 298.15 K; 101 kPa; Liquid; Vibrating tube method
[2] = xn = mol fraction of the nth substance listed; conditions: 298.15 K, 101 kPa, Liquid, Vibrating tube method

CC1COC(=O)O1 (configuration not stated) [4-methyl-1,3-dioxolan-2-one]
Conditions | mass density [kg/m3]
[1] | 1199.49

CC1COC(=O)O1 (configuration not stated) [4-methyl-1,3-dioxolan-2-one] + CO
[2]
Conditions | mass density [kg/m3]
x1 = 0.0484 | 828.25
x1 = 0.0497 | 828.25
x1 = 0.051 | 829.62
x1 = 0.0987 | 871.34
x1 = 0.0991 | 870.05
x1 = 0.0999 | 869.111
x1 = 0.1972 | 932.83
x1 = 0.1991 | 936.46
x1 = 0.2001 | 939.29
x1 = 0.3942 | 1035.57
x1 = 0.3998 | 1021.45
x1 = 0.4001 | 1037.34
x1 = 0.4998 | 1069.62
x1 = 0.5022 | 1072.85
x1 = 0.505 | 1072.84
x1 = 0.598 | 1103.43
x1 = 0.6017 | 1106.39
x1 = 0.6049 | 1103.9
x1 = 0.7939 | 1159.25
x1 = 0.7979 | 1159.25
x1 = 0.8009 | 1158.72
x1 = 0.9 | 1179.23
x1 = 0.9011 | 1179.68
x1 = 0.9031 | 1179.23
x1 = 1 | 1199.49

CC#N [acetonitrile]
Conditions | mass density [kg/m3]
[1] | 776.615

CC#N [acetonitrile] + CO
[2]
Conditions | mass density
x1 = 0.0992 | 787.14 kg/m3
x1 = 0.1002 | 787.104 kg/m3
x1 = 0.1075 | 787.149 kg/m3
x1 = 0.197 | 786.692 kg/m3
x1 = 0.1984 | 786.63 kg/m3
x1 = 0.2008 | 786.647 kg/m3
x1 = 0.4002 | 784.701 kg/m3
x1 = 0.4004 | 784.66 kg/m3
x1 = 0.4013 | 784.644 kg/m3
x1 = 0.465 | 784.22 kg/m3
x1 = 0.4653 | 784.25 kg/m3
x1 = 0.5041 | 783.427 kg/m3
x1 = 0.5042 | 783.347 kg/m3
x1 = 0.5047 | 783.356 kg/m3
x1 = 0.601 | 782.103 kg/m3 and 782.009 kg/m3
x1 = 0.6056 | 781.935 kg/m3
x1 = 0.7992 | 779.248 kg/m3
x1 = 0.8012 | 779.292 kg/m3
x1 = 0.8067 | 779.242 kg/m3
x1 = 0.9007 | 777.825 kg/m3
x1 = 0.9044 | 777.935 kg/m3
x1 = 0.9049 | 777.896 kg/m3
x1 = 0.9358 | 777.391 kg/m3
x1 = 0.9376 | 777.347 kg/m3
x1 = 0.9382 | 777.385 kg/m3
x1 = 1 | 776.615 kg/m3

CN(C)C=O [dimethylformamide]
Conditions | mass density [kg/m3]
[1] | 943.974

CN(C)C=O [dimethylformamide] + CO
[2]
Conditions | mass density
x1 = 0.0496 | 803.451 kg/m3
x1 = 0.0502 | 803.39 kg/m3
x1 = 0.0511 | 803.056 kg/m3
x1 = 0.0991 | 818.484 kg/m3
x1 = 0.1021 | 818.46 kg/m3
x1 = 0.1084 | 818.189 kg/m3
x1 = 0.1981 | 843.566 kg/m3
x1 = 0.1988 | 843.761 kg/m3
x1 = 0.2004 | 843 kg/m3
x1 = 0.4022 | 882.138 kg/m3 and 881.976 kg/m3
x1 = 0.4054 | 881.38 kg/m3
x1 = 0.4986 | 896.174 kg/m3
x1 = 0.5002 | 894.978 kg/m3
x1 = 0.5013 | 896.278 kg/m3
x1 = 0.5982 | 909.277 kg/m3
x1 = 0.6008 | 908.588 kg/m3
x1 = 0.6031 | 909.254 kg/m3
x1 = 0.7998 | 928.355 kg/m3
x1 = 0.8028 | 928.308 kg/m3
x1 = 0.8054 | 928.317 kg/m3
x1 = 0.8997 | 936.786 kg/m3
x1 = 0.9033 | 936.655 kg/m3
x1 = 0.9039 | 936.718 kg/m3
x1 = 1 | 943.974 kg/m3

CO [methanol]
Conditions | mass density [kg/m3]
[1] | 786.58

CO [methanol] + CC1COC(=O)O1
Conditions | mass density [kg/m3]
[2], x2 = 0 | 786.58

CO [methanol] + CC#N
Conditions | mass density [kg/m3]
[2], x2 = 0 | 786.58

CO [methanol] + CN(C)C=O
Conditions | mass density [kg/m3]
[2], x2 = 0 | 786.58
